Usually Kd stands for the free concentration of one partner at which half of the binding sites on the other are occupied at equilibrium, for simple one-to-one binding.

Active and inactive are the calls of the source. Rule as the data show it, for most assays here: actives have a measured Kd and inactives only a lower limit.

The results in this text go back to ChEMBL document CHEMBL3991601, “The target landscape of clinical kinase drugs” (Science, 2017).

For assay [1], the target named is ATP-dependent RNA helicase DDX3X (Homo sapiens, UniProt O00571).
The target of assay [2] is Dual specificity tyrosine-phosphorylation-regulated kinase 1A (Homo sapiens, UniProt Q13627).
The target in assay [3] is Protein kinase C beta type (Homo sapiens, UniProt P05771).
For assay [4], the target named is Serine/threonine-protein kinase MRCK gamma (Homo sapiens, UniProt Q6DT37).
Assay [5] has as its target T1, Mitogen-activated protein kinase kinase kinase kinase 2 (Homo sapiens, UniProt Q12851).
T1 sequence (Q12851 whole entry): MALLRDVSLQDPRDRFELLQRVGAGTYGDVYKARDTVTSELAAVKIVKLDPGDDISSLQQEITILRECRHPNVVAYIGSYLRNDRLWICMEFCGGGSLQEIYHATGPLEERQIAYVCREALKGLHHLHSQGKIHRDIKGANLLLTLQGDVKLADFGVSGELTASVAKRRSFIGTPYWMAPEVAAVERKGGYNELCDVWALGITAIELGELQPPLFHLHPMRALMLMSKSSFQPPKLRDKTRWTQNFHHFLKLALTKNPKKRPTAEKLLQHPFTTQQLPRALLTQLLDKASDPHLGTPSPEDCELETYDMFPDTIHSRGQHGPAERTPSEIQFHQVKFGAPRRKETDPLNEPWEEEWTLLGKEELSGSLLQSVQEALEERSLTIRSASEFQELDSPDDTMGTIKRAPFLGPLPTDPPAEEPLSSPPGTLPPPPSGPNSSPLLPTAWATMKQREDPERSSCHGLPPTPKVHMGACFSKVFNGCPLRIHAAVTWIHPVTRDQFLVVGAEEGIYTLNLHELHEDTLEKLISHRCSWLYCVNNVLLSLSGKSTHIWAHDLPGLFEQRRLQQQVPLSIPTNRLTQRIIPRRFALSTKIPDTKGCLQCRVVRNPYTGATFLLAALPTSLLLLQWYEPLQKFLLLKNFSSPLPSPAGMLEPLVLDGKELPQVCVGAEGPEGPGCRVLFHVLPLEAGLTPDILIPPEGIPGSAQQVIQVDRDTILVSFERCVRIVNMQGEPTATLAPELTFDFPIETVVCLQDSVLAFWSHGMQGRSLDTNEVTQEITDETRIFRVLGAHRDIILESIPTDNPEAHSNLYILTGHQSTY

Assay [6] concerns the target Structural maintenance of chromosomes protein 2 (Homo sapiens, UniProt O95347).
The target in assay [7] is T2, Serine/threonine-protein kinase D2 (Homo sapiens, UniProt Q9BZL6).
T2 sequence (Q9BZL6 whole entry): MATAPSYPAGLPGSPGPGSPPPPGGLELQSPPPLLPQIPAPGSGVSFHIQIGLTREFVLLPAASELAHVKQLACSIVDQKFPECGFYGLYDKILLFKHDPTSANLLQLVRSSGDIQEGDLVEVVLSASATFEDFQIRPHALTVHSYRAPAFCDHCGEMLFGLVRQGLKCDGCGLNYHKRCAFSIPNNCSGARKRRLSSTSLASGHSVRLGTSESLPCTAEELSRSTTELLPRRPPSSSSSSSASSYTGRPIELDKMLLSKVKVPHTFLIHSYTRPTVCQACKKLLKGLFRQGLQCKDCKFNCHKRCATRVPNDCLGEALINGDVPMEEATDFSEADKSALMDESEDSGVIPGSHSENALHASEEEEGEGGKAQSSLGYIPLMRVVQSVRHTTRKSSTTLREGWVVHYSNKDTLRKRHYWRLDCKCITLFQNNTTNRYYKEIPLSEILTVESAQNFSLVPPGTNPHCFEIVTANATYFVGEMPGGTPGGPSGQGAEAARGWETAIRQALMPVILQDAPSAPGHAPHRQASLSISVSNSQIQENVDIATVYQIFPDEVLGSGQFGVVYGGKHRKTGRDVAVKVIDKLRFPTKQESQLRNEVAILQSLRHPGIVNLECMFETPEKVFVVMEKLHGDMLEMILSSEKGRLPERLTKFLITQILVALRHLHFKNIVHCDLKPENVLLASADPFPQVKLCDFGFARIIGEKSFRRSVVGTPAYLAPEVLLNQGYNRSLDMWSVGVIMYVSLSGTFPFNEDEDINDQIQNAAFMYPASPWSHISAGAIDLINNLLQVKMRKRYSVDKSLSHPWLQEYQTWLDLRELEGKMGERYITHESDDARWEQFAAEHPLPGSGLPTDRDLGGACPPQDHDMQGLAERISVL

In assay [8] the target is Hepatocyte growth factor receptor (Homo sapiens, UniProt P08581).
Also: in the data inactive means no Kd found up to 30 µM.

Chain of Structural maintenance of chromosomes protein 2 (O95347 whole entry): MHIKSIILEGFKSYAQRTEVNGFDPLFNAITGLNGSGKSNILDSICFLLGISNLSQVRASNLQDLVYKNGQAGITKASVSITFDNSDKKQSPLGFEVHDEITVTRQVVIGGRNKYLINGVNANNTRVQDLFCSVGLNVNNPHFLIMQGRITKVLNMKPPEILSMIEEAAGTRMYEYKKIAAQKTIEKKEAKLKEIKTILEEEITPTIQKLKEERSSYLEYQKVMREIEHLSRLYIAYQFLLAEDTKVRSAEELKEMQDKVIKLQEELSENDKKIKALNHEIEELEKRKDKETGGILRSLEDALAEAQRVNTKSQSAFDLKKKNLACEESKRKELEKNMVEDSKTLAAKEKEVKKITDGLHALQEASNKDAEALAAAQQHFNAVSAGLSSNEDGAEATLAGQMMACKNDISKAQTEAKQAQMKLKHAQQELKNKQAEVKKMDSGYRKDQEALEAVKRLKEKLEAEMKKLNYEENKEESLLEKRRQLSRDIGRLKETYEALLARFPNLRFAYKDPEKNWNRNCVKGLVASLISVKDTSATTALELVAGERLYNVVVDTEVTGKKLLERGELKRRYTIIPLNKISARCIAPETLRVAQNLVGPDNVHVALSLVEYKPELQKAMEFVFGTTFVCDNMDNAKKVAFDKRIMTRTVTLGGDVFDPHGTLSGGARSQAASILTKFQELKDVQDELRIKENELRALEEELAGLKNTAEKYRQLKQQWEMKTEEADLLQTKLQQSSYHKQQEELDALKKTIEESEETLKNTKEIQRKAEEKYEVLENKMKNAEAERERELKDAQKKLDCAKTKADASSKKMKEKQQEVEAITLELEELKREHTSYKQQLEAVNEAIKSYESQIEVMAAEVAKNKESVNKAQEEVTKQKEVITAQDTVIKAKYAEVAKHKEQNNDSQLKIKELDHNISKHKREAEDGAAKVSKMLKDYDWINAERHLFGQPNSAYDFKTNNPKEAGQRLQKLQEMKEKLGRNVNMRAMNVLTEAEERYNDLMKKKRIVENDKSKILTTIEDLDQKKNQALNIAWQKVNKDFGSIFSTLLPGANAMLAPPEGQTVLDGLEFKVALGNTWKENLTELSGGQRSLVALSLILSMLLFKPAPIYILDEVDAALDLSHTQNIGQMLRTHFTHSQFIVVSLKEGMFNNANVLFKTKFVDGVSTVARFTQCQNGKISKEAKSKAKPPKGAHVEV
Chain of ATP-dependent RNA helicase DDX3X (O00571 whole entry): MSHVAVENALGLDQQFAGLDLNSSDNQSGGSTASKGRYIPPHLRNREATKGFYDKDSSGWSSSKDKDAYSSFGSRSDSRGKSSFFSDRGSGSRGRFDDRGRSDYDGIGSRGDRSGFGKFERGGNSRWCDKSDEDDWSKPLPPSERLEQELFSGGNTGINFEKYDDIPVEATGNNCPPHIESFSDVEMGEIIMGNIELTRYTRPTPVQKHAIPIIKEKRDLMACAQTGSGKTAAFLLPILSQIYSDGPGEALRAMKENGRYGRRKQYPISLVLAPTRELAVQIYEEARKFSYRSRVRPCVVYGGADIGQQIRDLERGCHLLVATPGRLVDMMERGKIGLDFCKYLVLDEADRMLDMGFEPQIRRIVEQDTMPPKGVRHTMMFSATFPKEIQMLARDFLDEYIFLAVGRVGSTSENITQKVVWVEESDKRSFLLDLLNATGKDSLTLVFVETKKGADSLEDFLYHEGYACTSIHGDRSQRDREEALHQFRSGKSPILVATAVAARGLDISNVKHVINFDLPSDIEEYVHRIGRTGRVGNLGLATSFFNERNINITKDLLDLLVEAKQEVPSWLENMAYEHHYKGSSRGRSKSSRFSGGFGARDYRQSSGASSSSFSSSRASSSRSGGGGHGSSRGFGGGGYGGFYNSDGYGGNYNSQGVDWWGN
Chain of Protein kinase C beta type (P05771 whole entry): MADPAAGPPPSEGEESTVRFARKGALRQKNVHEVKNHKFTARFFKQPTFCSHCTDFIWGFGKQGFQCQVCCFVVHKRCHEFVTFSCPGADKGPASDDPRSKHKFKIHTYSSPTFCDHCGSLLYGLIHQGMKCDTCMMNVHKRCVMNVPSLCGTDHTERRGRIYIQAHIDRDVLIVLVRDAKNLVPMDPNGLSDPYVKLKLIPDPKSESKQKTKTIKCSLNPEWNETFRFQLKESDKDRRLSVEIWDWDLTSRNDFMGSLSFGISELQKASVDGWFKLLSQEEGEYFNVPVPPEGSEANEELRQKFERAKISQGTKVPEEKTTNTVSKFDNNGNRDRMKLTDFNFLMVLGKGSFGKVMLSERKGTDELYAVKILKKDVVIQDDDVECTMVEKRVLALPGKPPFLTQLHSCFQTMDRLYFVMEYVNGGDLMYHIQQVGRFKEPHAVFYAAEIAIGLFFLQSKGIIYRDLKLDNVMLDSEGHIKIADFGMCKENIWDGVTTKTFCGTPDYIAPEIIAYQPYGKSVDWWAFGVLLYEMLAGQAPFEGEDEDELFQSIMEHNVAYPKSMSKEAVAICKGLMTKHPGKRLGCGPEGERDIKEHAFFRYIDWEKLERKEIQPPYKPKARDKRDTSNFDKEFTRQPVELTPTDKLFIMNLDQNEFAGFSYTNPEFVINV
Chain of Hepatocyte growth factor receptor (P08581 whole entry): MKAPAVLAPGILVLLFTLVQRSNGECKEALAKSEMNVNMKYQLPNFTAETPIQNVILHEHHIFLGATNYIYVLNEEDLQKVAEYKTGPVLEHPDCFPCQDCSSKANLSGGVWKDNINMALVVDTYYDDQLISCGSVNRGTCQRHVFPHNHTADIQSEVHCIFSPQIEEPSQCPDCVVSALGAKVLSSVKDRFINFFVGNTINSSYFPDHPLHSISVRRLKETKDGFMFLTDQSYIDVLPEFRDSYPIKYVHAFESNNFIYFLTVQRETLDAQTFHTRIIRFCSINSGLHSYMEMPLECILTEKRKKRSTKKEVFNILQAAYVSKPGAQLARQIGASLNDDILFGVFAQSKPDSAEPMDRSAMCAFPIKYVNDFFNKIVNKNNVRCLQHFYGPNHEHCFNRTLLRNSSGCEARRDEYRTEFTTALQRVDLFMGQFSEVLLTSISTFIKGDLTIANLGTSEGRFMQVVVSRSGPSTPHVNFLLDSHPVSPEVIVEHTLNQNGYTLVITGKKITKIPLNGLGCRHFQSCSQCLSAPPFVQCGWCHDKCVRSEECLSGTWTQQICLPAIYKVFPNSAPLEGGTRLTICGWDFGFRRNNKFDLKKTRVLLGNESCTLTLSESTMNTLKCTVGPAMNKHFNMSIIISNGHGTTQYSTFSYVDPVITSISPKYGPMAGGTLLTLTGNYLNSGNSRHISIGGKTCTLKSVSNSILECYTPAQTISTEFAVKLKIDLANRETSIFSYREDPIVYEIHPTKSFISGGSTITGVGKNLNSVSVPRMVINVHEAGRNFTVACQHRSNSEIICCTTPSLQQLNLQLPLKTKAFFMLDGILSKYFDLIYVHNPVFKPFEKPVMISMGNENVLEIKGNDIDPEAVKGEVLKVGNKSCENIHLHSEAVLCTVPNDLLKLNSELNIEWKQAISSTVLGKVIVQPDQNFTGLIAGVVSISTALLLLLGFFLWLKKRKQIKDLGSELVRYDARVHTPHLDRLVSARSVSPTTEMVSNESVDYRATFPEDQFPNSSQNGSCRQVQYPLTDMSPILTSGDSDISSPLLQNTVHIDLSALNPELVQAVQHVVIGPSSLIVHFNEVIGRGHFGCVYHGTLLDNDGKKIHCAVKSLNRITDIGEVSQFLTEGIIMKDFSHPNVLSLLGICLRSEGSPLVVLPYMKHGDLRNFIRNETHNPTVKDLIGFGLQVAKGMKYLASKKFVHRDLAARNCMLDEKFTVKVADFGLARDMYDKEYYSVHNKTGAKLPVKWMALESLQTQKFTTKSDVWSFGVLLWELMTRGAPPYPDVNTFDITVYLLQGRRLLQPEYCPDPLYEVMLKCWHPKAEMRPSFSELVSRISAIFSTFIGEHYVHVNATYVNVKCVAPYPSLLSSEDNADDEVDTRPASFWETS

For `CO[C@H]1C[C@@H]2CC[C@@H](C)[C@@](O)(O2)C(=O)C(=O)N2CCCC[C@H]2C(=O)O[C@H]([C@H](C)C[C@@H]2CC[C@@H](OC(=O)C(C)(CO)CO)[C@H](OC)C2)CC(=O)[C@H](C)/C=C(\C)[C@@H](O)[C@@H](OC)C(=O)[C@H](C)C[C@H](C)/C=C/C=C/C=C/1C` [TEMSIROLIMUS], the Kd in assay [1], in assay [2], in assay [3], in assay [4], in assay [5] and in assay [6] was > 30 µM (inactive) each time. Moreover, the Kd in assay [7] and in assay [8] was > 30 µM (inactive) throughout.

Take `COc1cc2c(Nc3ccc(Cl)c(Cl)c3F)ncnc2cc1OC[C@@H]1C[C@@H]2CN(C)C[C@@H]2C1` [TESEVATINIB]: the Kd in assay [1], in assay [2], in assay [3], in assay [4], in assay [5] and in assay [6] was > 30 µM (inactive) throughout. The Kd in assay [7] and in assay [8] was > 30 µM (inactive) each time.

Turning to `O=C(Cc1ccc(-c2ccc(OCCN3CCOCC3)cc2)cn1)NCc1ccccc1` [TIRBANIBULIN], the Kd in assay [1], in assay [2], in assay [3], in assay [4], in assay [5] and in assay [6] was > 30 µM (inactive) in each case. In addition, the Kd in assay [7] and in assay [8] was > 30 µM (inactive) throughout.

Consider `O=C1NC(=O)[C@@H](c2cn3c4c(cccc24)CCC3)[C@@H]1c1c[nH]c2ccccc12` [TIVANTINIB], for which the Kd in assay [1], in assay [2], in assay [3], in assay [4], in assay [5] and in assay [6] was > 30 µM (inactive) throughout. The Kd in assay [7] is > 30 µM (inactive); in assay [8], 0.511 µM (active).

As to `C[C@@H](NC(=O)c1ncnc(N)c1Cl)c1ncc(C(=O)Nc2cc(C(F)(F)F)c(Cl)cn2)s1` [TOVORAFENIB], the Kd in assay [1] was > 30 µM (inactive); in assay [2], 3.22 µM (active); in assay [3], > 30 µM (inactive); in assay [4], > 30 µM (inactive); in assay [5], > 30 µM (inactive); in assay [6], > 30 µM (inactive). Also, the Kd in assay [7] and in assay [8] was > 30 µM (inactive) throughout.

In the case of `Cc1cc(Nc2ncnc3ccc(NC4=NC(C)(C)CO4)cc23)ccc1Oc1ccn2ncnc2c1` [TUCATINIB], the Kd in assay [1], in assay [2], in assay [3], in assay [4], in assay [5] and in assay [6] was > 30 µM (inactive) each time. Besides, the Kd in assay [7] and in assay [8] was > 30 µM (inactive) in each case.

On to `CN1C/C=C/CCOc2cccc(c2)-c2ccnc(n2)Nc2cccc(c2)C1` [ZOTIRACICLIB], for which the Kd was > 30 µM (inactive) in assay [1]; 5.62 µM in assay [2]; 4.32 µM (active) in assay [3]; > 30 µM (inactive) in assay [4]; 1.36 µM (active) in assay [5]; > 30 µM (inactive) in assay [6]. The figures for the Kd in assay [7] and in assay [8] were 0.474 µM (active) and > 30 µM (inactive), respectively.
